Measurements: patent US11884708B2, “Stapled peptide inhibitors of nemo as potential anti-inflammatory and anti-cancer drugs” (INSTITUT PASTEUR, priority 2015, dated 2024)
Where two headings read alike, the source gives them in different places. Where a SMILES comes first, the peptide text is derived from it. Bridges are numbered along the chain shown (N, C = ends). [ ]: non-standard residue; d: D form. The star is where a group is joined. BODIPYFLEthylmaleimide = Cc1cc(C)n2c1C=C1C=CC(CCC(=O)NCCN3C(=O)CC(*)C3=O)=[N+]1[B-]2(F)F; S5 = C=CCCC[C@](C)(N)C(=O)O

Assays:
[1] = CD spectroscopy, α-helical content; format: physicochemical; conditions: 50 μM peptide, phosphate buffer pH 7.0, UBI in TFE taken as 100%
[2] = Temperature-induced denaturation followed by CD; format: physicochemical; conditions: 30 μM or 300 μM, ΔCp ≈ 0; for Tm: thermal denaturation by CD; for ΔH: van't Hoff enthalpy change at Tm
Protocol: Temperature-induced denaturation experiments were performed by measuring the ellipticity at 222 nm from 1° C. to 95° C. in 1° C. steps, at a rate of 1° C./min, with a 2 nm bandwidth. Thermodynamic parameters including the melting temperature (Tm) and the van't Hoff enthalpy change at the melting temperature (ΔHm) were determined by fitting the denaturation curves with the Gibbs-Helmholtz equation as described elsewhere, [10]. The heat capacity change (ΔCp) was assumed to be 0 as judged by ΔHm which yielded similar values within 10% at two independent peptide concentrations (30 and 300 μM). The ellipticity was converted to differential extinction coefficient Δε (M^−1·cm^−1) per residue taking into account the peptide concentration determined by amino acid analysis.
Thermal stability of the peptides was also investigated by performing thermal denaturation profiles followed by CD (FIGS. 1 C and D and Table III). […] Indeed, the helicity of UBI-Aib (49%) is only 1.16-fold increased at 1° C. compared to UBI (42%), while its melting temperature (Tm=−8° C.) is 2.25 times higher than that of UBI (Tm=−18° C.).

CC2-LZ domain of NEMO = CC2-LZ domain of NEMO (Mus musculus, UniProt O88522); experiment: Fluorescence anisotropy/polarization binding assay
Sequence of CC2-LZ domain of NEMO (O88522 242-343 limits assumed): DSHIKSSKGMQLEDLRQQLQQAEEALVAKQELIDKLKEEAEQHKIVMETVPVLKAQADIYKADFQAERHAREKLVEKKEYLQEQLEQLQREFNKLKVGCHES

NF-κB pathway = NF-κB pathway (Mus musculus, UniProt O88522); experiment: NF-κB inhibition assay, LPS-stimulated 70Z3-C3 lacZ reporter cells; format: cell-based; conditions: for IC 50 NF-κB inhibition: 70Z3-C3 cells, 2 h peptide then LPS 4 h, N.I = No inhibition observed
Sequence of NF-κB pathway (O88522 whole entry): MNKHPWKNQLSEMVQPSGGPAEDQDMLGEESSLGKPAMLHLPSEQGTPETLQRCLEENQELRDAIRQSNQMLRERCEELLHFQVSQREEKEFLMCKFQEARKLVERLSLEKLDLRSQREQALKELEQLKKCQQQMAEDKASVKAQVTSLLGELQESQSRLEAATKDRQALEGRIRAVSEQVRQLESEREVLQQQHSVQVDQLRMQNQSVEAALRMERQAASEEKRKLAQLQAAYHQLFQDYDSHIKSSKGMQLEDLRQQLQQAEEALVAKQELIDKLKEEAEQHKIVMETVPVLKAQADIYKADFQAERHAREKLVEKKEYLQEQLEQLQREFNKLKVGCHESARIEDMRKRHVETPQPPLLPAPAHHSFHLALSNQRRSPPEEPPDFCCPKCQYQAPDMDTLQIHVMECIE
From the text: The stable cell line of pre-B lymphocyte 70Z3-C3 cells expressing the lacZ reporter gene under the control of NF-κB was previously described. OCI-Ly3 (ABC-DLBCL, MALT1 dependent) and OCI-Ly7 (GCB-DLBCL). U2932 (ABC-DLBCL, MALT1 independent) were purchased from DSMZ (Deutsche Sammlung von Mikroorganismen and Zellkulturen) and HLY1 (ABC-DLBCL, MALT1 independent). Jurkat T-cells were obtained after transduction of lentiviruses containing a NF-κB reporter luciferase gene as previously described. All cell lines were grown in RPMI 1640 medium supplemented with 10% FBS, 10 μg/ml of streptomycin, 10 U/ml of penicillin and kept at 37° C., in a 5% CO2 humidified incubator. 0.05 mM of β-mercaptoethanol was added for 70Z3-C3. Primary and secondary antibodies were as following: polyclonal rabbit anti NF-κB p65, (sc-372, Santa Cruz Biotechnology, Inc) Alexa-488 coupled goat anti-rabbit IgG1 (Invitrogen) NF-κB inhibition assay was almost similar to those previously described in [1], except that luminescence data were monitored with a Centro XS^3, LB960 luminometer (Berthold technologies.), which is more sensitive. All experiments were performed in duplicates in 96-well plates. […] After 4 h incubation, cells were centrifuged 7 min at 400×g, at 4° C.

70Z3-C3 cells = experiment: Cellular uptake of BODIPY-labeled peptides by FACS; format: cell-based; conditions: 10 μM labeled peptide, 2 h, 37° C.
Protocol: 2.2×10^5 cells in 100 μl of 70Z3-C3 were incubated with either 10 μM or with various doses of 10 μM, 5 μM and 1 μM of labeled-peptides at 37° C., 5% CO2. Similarly to fluorescence microscopy experiments, cells alone or incubated with BODIPY®-labeled BSA (ref) or BODIPY®-UBI devoid of the antennapedia cell penetrating sequence were used as negative control, whereas cells with BA-UBI [1] at 10 μM were used as positive control. After 2 h incubation, cells were washed 4 times with PBS at room temperature, and finally diluted 1:3 in PBS before subjected to FACS analysis. Along with the BODIPY® fluorophore the fluorescence intensity was recorded at 525±25 nm using the Gallios Flow cytometer (Beckman Coulter) to analyse each cells sample. Each internalization peptide was assessed by gating a population of 15,000 events and the data were analysed using Kaluza software version 1.2.
For determination of cellular uptake by flow cytometry, the BA-UBI-SAHND306-Q313 stapled peptide was first incubated with 2.2×10^5 70Z3-C3 cells in […] either at 4° C. or 37° C. for 2 h. Bodipy-labeled BSA, bodipy alone and bodipy-UBI were used as negative controls to verify the washing quality and efficient removal of any non-specific binding at the cell surface before FACS analysis. […] After 2 h of incubation, cells were washed four times with PBS at room temperature and diluted at 1:3 in PBS for FACS analysis. Samples were analyzed as previously described in the European patent (No: 15307137.8).

[3] = tested on: OCI-Ly3 (ABC-DLBCL, MALT1 dependent); experiment: Cell death assay (CellTiter-Blue resazurin); format: cell-based, human; conditions: OCI-Ly3, 48 h
Protocol: The CellTiter-Blue® Cell Viability kit assay purchased from Promega was used to assess the cell death induced by NEMO stapled peptides in ABC- and GCB-DLBCL cell lines. […] Cells were considered 100% death when the fluorescence intensity value was the same as the one with the medium alone or with the cells treated with the cycloheximide protein synthesis inhibitor at 25 μM (Sigma Aldrich).
For each time point measurement 100 μl of cell samples were withdrawn at different incubation times (7 h, 24 h and 48 h) and subjected to resazurin assay for one hour at 37° C. in the CO2 incubator by adding and mixing for 10 sec 20 μl of resazurin. Fluorescence measurements were performed with a TECAN infinite F500 instrument at 560 nm excitation wavelength and 590 nm emission wavelength. Viability of cells at time 0 was determined just before adding compound and all experiments were performed in duplicate.
The percentage of cell death was calculated according to the following formula: (1−((RFUobs−blank)/(RFU100% viability−blank))*100), where RFUobs corresponds to the cells viability observed in the presence of compound, RFU100% viability, the initial cells viability and blank the background fluorescence measured using the medium alone.
The EC50 value was calculated by plotting the percentage of cell death as function of the compound concentration and fitting the experimental curve with the following formula: (A*P0)/(EC50+P0), where A is the amplitude of fluorescence, P0 is the peptide concentration.
To compare the inhibition efficiency of BA-UBI-SAHND306-Q313 with IKK inhibitors (MLN120B, MedChem Express) or IKKα/β inhibitor (TPCA1, R&D systems), 25,000 DLBCL cells (OCI-Ly3) were incubated for 7 h with an increasing concentration of IKK inhibitors ranging from 0 to 50 μM, and the amount of cell death was then determined using CellTiter-Blue® Cell Viability kit assay. For the MI-2 MALT1 inhibitor (Fontan et al., 2012, Cancer cell 22, 812-824), similar experiments were carried out in MALT dependent (OCI-Ly3) and independent (HLY1) DLBCL cells using a 0-25 μM range.

[4] = fixed peptide concentration 0.1 μM, read-out: Binding affinity (FP) at 0.1 μM
[5] = fixed peptide concentration 10 μM

| SMILES | α-helical content at 1° C. [1] [%] | ΔS [2] [cal. mol^−1.K^−1] | Tm [2] [C°] | ΔH [2] [kcal/mol] | Kd (CC2-LZ domain of NEMO; [4]) [µM] | Binding affinity (FP) at 10 μM (CC2-LZ domain of NEMO; [5]) | IC 50 NF-κB inhibition (NF-κB pathway) | FACS peak median, first or only peak (70Z3-C3 cells) | binding to CC2-LZ, in words (CC2-LZ domain of NEMO) | Kd (CC2-LZ domain of NEMO; fixed peptide concentration 10 μM, read-out: Binding affinity (FP) at 10 μM) [µM] | NF-κB inhibition activity, in words (NF-κB pathway; LPS-induced NF-κB activation) | cell death [3] |
| --- | --- | --- | --- | --- | --- | --- | --- | --- | --- | --- | --- | --- |
| CC(=O)N[C@@H](CSC1CC(=O)N(CCNC(=O)CCC2=[N+]3C(=Cc4c(C)cc(C)n4[B-]3(F)F)C=C2)C1=O)C(=O)N[C@@H](CC(C)C)C(=O)N[C@@H](CCCCN)C(=O)N[C@@]1(C)CCCC=CCCC[C@@](C)(C(=O)N[C@@H](Cc2ccc(O)cc2)C(=O)N[C@@H](CCCCN)C(=O)N[C@@H](C)C(=O)N[C@@H](CCCNC(=N)N)C(=O)N[C@@H](Cc2ccccc2)C(=O)N[C@@H](CCC(N)=O)C(=O)N[C@@H](C)C(=O)N[C@@H](CCC(=O)O)C(=O)N[C@@H](CCCNC(=N)N)C(=O)N[C@@H](Cc2c[nH]cn2)C(=O)N[C@@H](C)C(=O)N[C@@H](CCCNC(=N)N)C(=O)N[C@@H](CCC(=O)O)C(=O)N[C@@H](CCCCN)C(N)=O)NC(=O)[C@H](CC(=O)O)NC(=O)[C@H](C)NC(=O)[C@H](CCC(N)=O)NC1=O (some centres unmarked) [UBI-SAHN A303-I307] (Ac-C(BODIPYFLEthylmaleimide)LK[S5]QAD[S5]YKARFQAERHAREK-NH2; staple 4-8) | 70 | −24 | 19 ± 0.3 | -6.9 | ~360 | Very weak | N.I* | 10 | – | – | – | – |
| CC(=O)N[C@@H](CSC1CC(=O)N(CCNC(=O)CCC2=[N+]3C(=Cc4c(C)cc(C)n4[B-]3(F)F)C=C2)C1=O)C(=O)N[C@@H](CCC(=O)O)C(=O)N[C@@H](CC(C)C)C(=O)N[C@@H](C)C(=O)N[C@@H](CCC(N)=O)C(=O)N[C@@H](CC(C)C)C(=O)N[C@@H](CCC(N)=O)C(=O)N[C@@H](C)C(=O)N[C@@H](CCC(=O)O)C(=O)N[C@@H](CC(C)C)C(=O)N[C@@H](CC(=O)O)C(=O)N[C@]1(C)CCCCCCC=CCCC[C@@](C)(C(=O)N[C@@H](CC(=O)O)C(=O)N[C@@H](CCCCN)C(=O)N[C@@H](CCC(N)=O)C(=O)N[C@@H](CCC(=O)O)C(=O)N[C@@H](CC(C)C)C(=O)N[C@@H](CCCNC(=N)N)C(=O)N[C@@H](CCCCN)C(=O)N[C@@H](CC(C)C)C(N)=O)NC(=O)[C@H](CCC(N)=O)NC(=O)[C@H](C(C)C)NC(=O)[C@H](C(C)C)NC(=O)[C@H](C)NC(=O)[C@H](CCC(N)=O)NC(=O)[C@H](C(C)C)NC1=O (single isomer, unassigned) [Co-SAHN I307-A314, ELAQLQAELDXVQAVVQXDKQELRKL, reference compound] | – | – | – | – | – | – | N.I* | – | does not interact | > 10000 | does not inhibit | no effect of cell death |
| CC[C@H](C)[C@H](NC(=O)[C@H](CC(=O)O)NC(=O)[C@H](C)NC(=O)[C@H](CCC(N)=O)NC(=O)[C@H](C)NC(=O)[C@H](CCCCN)NC(=O)[C@H](CC(C)C)NC(=O)[C@H](CSC1CC(=O)N(CCNC(=O)CCC2=[N+]3C(=Cc4c(C)cc(C)n4[B-]3(F)F)C=C2)C1=O)NC(C)=O)C(=O)N[C@@H](Cc1ccc(O)cc1)C(=O)N[C@@H](CCCCN)C(=O)N[C@@]1(C)CCCC=CCCC[C@@](C)(C(=O)N[C@@H](CCC(=O)O)C(=O)N[C@@H](CCCNC(=N)N)C(=O)N[C@@H](Cc2c[nH]cn2)C(=O)N[C@@H](C)C(=O)N[C@@H](CCCNC(=N)N)C(=O)N[C@@H](CCC(=O)O)C(=O)N[C@@H](CCCCN)C(N)=O)NC(=O)[C@H](CCC(N)=O)NC(=O)[C@H](Cc2ccccc2)NC(=O)[C@H](CCCNC(=N)N)NC1=O (some centres unmarked) [UBI-SAHN A310-A314, LKAQADIYKX4RFQX6ERHAREK] (Ac-C(BODIPYFLEthylmaleimide)LKAQADIYK[S5]RFQ[S5]ERHAREK-NH2; staple 11-15) | 65 | −11 | 15 ± 0.3 | -3.2 | ~360 | Very weak | N.I* | – | – | – | – | – |
